Source: patent publication US20250154105A1, “POLYCYCLIC COMPOUND AND USE THEREOF” (TYK MEDICINES, INC., priority 2021, published 2025)

Assays:
[1] = system: human pleural mesothelioma cells NCI-H226; experiment: Cell anti-proliferation experiment (CCK8), NCI-H226; assay type: cell-based
Description: TEST EXAMPLE 1 CELL ANTI-PROLIFERATION EXPERIMENT
Determination of proliferation inhibition of YAP-TEAD inhibitor compounds on human pleural mesothelioma cells NCI-H226
Experimental materials and equipments: Human pleural mesothelioma cells NCI-H226 was purchased from NANJING COBIOER BIOSCIENCES CO., LTD. RPMI-1640 medium (Bio-Channel), DMSO (dimethyl sulfoxide), CCK8 (WST-8) Cell Assay Kit (Beyotime), 0.25% EDTA-Tripsin (trypsin digest), 1×PBS (phosphate buffer, PH7.2), 96-well plate (Corning), fetal bovine serum (FBS), 10,000 U/mL penicillin-G/streptomycin, high-speed freezing centrifuge (EPPENDORF 5810R), enzyme-linked immunosorbent assay (Tecan Spark).
1. Cell plating • A) Tumor cells were cultured to 80-90% density in RPMI-1640 (containing 10% FBS and 100 U/mL penicillin-G/streptomycin) under the condition of 37° C., 5% CO2 and saturated humidity. • B) The culture medium was removed from the 10 cm culture dish. • C) Cells were washed with 10 ml 1×PBS. • D) 4 ml of 0.25% EDTA-Tripsin was added to digest pancreatin for 5 minutes in an incubator at 37° C. and 5% CO2. Then the mixture was transferred to a 15 ml centrifuge tube, and centrifuged for 5 minutes at 200 g. The supernatant was discarded to obtain cell precipitation. • E) The cell precipitation was resuspended with 4 ml of […], counted and adjusted to 10,000 cells/ml. • F) The cell suspension was added to a 96-well plate with a volume of 100 μL per well and cultured overnight in an incubator at 37° C. and 5% CO2.
• Compound dilution • A) Preparation of gradient dilution solutions of the tested compounds: the tested compounds was configured to 1 mM stock solution. Then […] of stock solution was dissolved in 1.5 ml of DMSO-free culture solution, and then 3-fold continuous gradient dilution with 0.1% DMSO culture solution was performed to get a total of 9 concentrations. The diluted concentrations of the compound were as follows: 333.33 nM, 111.11 nM, 37.03 nM, 12.35 nM, 4.15 nM, 1.37 nM, 0.46 nM, 0.15 nM • B) After full mixing, 100 μL of culture compound solution was taken to replace the culture solution in the cell culture plate, with 4 duplicated wells at each concentration; • C) The cells were transferred to the incubator to incubate for 3 days.
• A) the cell culture plate was taken out and added with 10 μl of CCK-8 (WST-8) solution per well in the biosafety cabinet; • B) The cell culture plate was put back into the incubator and continued to incubate for 3 hours; • C) 450 nm wavelength was selected to measure absorbance value on TECAN enzyme linked immunosorbent assay detector.
The following formula was used to calculate the cell viability (% Cell Viability); • Cell Viability (%)=[A(Drug-added)-A(Blank)]/[A(0 Drug-added)-A(blank)][…] • A (Drug-added): The absorbance of wells containing cells, CCK8 solution, and drug solution. • A (Blank): The absorbance of wells containing culture medium and CCK8 solution, but without cells. • A (0 Drug-added): The absorbance of wells containing cells, CCK8 solution, but without drug solution. • Cell viability: Cell proliferation viability or cytotoxicity viability was determined by the IC50 value obtained by curve fitting using GraphPad Prism 8 software.

YAP-TEAD = YAP-TEAD inhibitor activity by Nano luciferase method (8xGTiiC-nLuc reporter in 293T cells); assay type: cell-based; details: Homo sapiens, HEK-293T, 48 hours incubation, read-out: Nano-luciferase detection (IC50)
Description: EXAMPLE 2: YAP-TEAD INHIBITOR ACTIVITY WAS DETECTED BY NANO LUCIFERASE METHOD
(1) Experimental materials and equipments: 293T cells were purchased from NANJING COBIOER BIOSCIENCES CO., LTD. DMEM medium (High sugar, no phenol red, Bio-Channel), DMSO (dimethyl sulfoxide), Lipo6000™ transfection reagent (Beyotime), pGL3B-8xGTiiC-nLuc-CMV-fLuc plasmid, 0.25% EDTA-Tripsin (trypsin digest), 1×PBS (phosphate buffer, PH7.2), 96-well white cell culture plate (PerkinElmer), fetal bovine serum (FBS), 10,000 U/mL penicillin-G/streptomycin, high-speed freezing centrifuge (EPPENDORF 5810R), 37° C. CO2 incubator, Vi-cell® Cell Counter, Envision Microplate Reader (PerkinElmer).
The revived 293T cells were inoculated into a 10 cm culture dish and placed in an incubator with 5% CO2, and cultured at constant temperature of 37° C. To ensure transfection efficiency, cells at logarithmic phase (cell density of approximately 50%-70%) should be used.
On the day before transfection, cells at the logarithmic phase were digested with Trypsin-EDTA, and culture medium was added to terminate digestion. The cell suspension was prepared by blowing and mixing using a pipette.
Cell concentration was measured using Vi-cell, and the cell suspension was diluted to a suspension of 5*10^^5 cells per milliliter. After preparing the cell suspension, the suspension was gently mixed. 10 ml of liquid was added to a 10 cm culture dish. In this way, the number of cells in each 10 cm culture dish was 5*10^^6. The cells were incubated at a constant temperature of 37° C. for 1 day in an incubator with 5% CO2.
Two clean and sterile centrifuge tubes were taken and added with 750 μL opti-MEM Medium without antibiotics and serum, respectively. Then one tube was added with 15 μg Plasmid (pGL3B-8xGTiiC-nLuc-CMV-fLuc), and gently blew and mixed well using a pipette; the other tube was added with Lipo6000 transfection reagent, and gently blew and mixed using a pipette. After standing at room temperature for 5 minutes, the culture solution containing DNA was added gently to the culture solution containing Lipo6000 transfection reagent, and mixed well by gently inverting the centrifuge tube, then standing at room temperature for 5 minutes.
The above mixture was added evenly to a 10 cm culture dish and replaced with fresh complete culture medium after 6 hours of cultivation.
After transfection for 1 day, cells were digested with Trypsin EDTA, and culture medium was added to terminate the digestion. The cell suspension was prepared by blowing and mixing using a pipette.
Cell concentration was measured using Vi-cell, and the cell suspension was diluted to a suspension of 20000 cells per milliliter.
After preparing the cell suspension, the suspension was gently mixed, and added to 96-well plate with 100 μL per well. Thus, the density of the cells to be tested is 2000 cells per well.
The inoculated cell culture plate was placed in the incubator for cultivation, and after about 24 hour, compounds with concentration gradient were added.
10 mM compound stock solution was diluted with culture medium to 50 μM. Compound solution of 50 μM was added to the third column of the deep well plate, 216 μL of culture medium containing 0.5% DMSO was added to the fourth to eleventh columns, successively.
Gradient dilution: taking 100 μL of solution from the third column and adding the solution to the fourth column and mixing well; then taking 100 µL of solution from the fourth column again and adding the solution to the fifth column, repeating this operation until the eleventh column.
Taking 25 μL of compound solution from the deep well plate and adding it to a 96-well culture plate using a multi-channel pipette. Repeating four times on the 96 well plate for each compound. Finally, a concentration gradient of 1:3.16 was formed in the 96-well plate with a maximum concentration of 10,000 nM. The • (5) Addition of Nano Luciferase Detection Reagent and Read […]

N#CC1CN(C(=O)c2ccc3c(ccc(=O)n3-c3ccc(C(F)(F)F)cc3)c2)C1 [Example T-21]
IC50 [1]: 1 to 5 µM
IC50 (YAP-TEAD): 1 to 5 µM

O=C(c1ccc2c(ccc(=O)n2-c2ccc(C(F)(F)F)cc2)c1)N1CC(O)C1 [Example T-22]
IC50 [1]: 1 to 5 µM
IC50 (YAP-TEAD): 1 to 5 µM

C[C@@H](NC(=O)c1ccc2c(ccc(=O)n2-c2ccc(C(F)(F)F)cc2)c1)c1ccccn1 [Example T-24]
IC50 [1]: 1 to 5 µM
IC50 (YAP-TEAD): 1 to 5 µM

CNS(=O)(=O)c1ccc2c(c1)c1nn(C)cc1c(=O)n2-c1ccc(C(F)(F)F)cc1 [Example T-31]
IC50 [1]: ≤ 1 µM
IC50 (YAP-TEAD): ≤ 1 µM

CNS(=O)(=O)c1ccc2c(c1)c1nc[nH]c1c(=O)n2-c1ccc(C(F)(F)F)cc1 [Example T-33]
IC50 [1]: ≤ 1 µM
IC50 (YAP-TEAD): ≤ 1 µM

C[C@@H](NC(=O)c1ccc2c(c1)c(=O)ccn2-c1ccc(C(F)(F)F)cc1)c1ccccn1 [Example T-34]
IC50 [1]: 1 to 5 µM
IC50 (YAP-TEAD): ≤ 1 µM

COC[C@H](C)NC(=O)c1ccc2c(c1)c(=O)ccn2-c1ccc(C(F)(F)F)cc1 [Example T-35]
IC50 [1]: 1 to 5 µM
IC50 (YAP-TEAD): ≤ 1 µM

N#CC1CN(C(=O)c2ccc3c(c2)c(=O)ccn3-c2ccc(C(F)(F)F)cc2)C1 [Example T-38]
IC50 [1]: 1 to 5 µM
IC50 (YAP-TEAD): 1 to 5 µM

CNS(=O)(=O)c1ccc2c(c1)-c1ncn(CCOC)c1CN2c1ccc(C(F)(F)F)cc1 [Example T-39]
IC50 [1]: ≤ 1 µM
IC50 (YAP-TEAD): ≤ 1 µM

CNS(=O)(=O)c1ccc2c(c1)c1cn(CCOC)nc1c(=O)n2-c1ccc(C(F)(F)F)cc1 [Example T-45]
IC50 [1]: ≤ 1 µM
IC50 (YAP-TEAD): ≤ 1 µM

CNS(=O)(=O)c1ccc2c(c1)c1ncn(CCO)c1c(=O)n2-c1ccc(C(F)(F)F)cc1 [Example T-46]
IC50 [1]: ≤ 1 µM
IC50 (YAP-TEAD): ≤ 1 µM

CN[S+]([O-])c1ccc2c(c1)c1ncn(CCOC)c1c(=O)n2-c1ccc(C(F)(F)F)cc1 (centres unmarked) [Example T-47]
IC50 [1]: ≤ 1 µM
IC50 (YAP-TEAD): ≤ 1 µM

CNS(=O)(=O)c1ccc2c(c1)c1ncn(C)c1c(=O)n2Cc1ccc(C(F)(F)F)cc1 [Example T-48]
IC50 [1]: ≤ 1 µM
IC50 (YAP-TEAD): ≤ 1 µM

CNS(=O)(=O)c1ccc2c(c1)-c1ncn(C)c1CN2Cc1ccc(C(F)(F)F)cc1 [Example T-49]
IC50 [1]: ≤ 1 µM
IC50 (YAP-TEAD): ≤ 1 µM

CC(C)NC(=O)c1ccc2c(c1)cc(Br)c(=O)n2-c1ccc(C(F)(F)F)cc1 [Example T-50]
IC50 [1]: 1 to 5 µM
IC50 (YAP-TEAD): 1 to 5 µM

CNS(=O)(=O)c1ccc2c(c1)-c1nn(C)cc1CC(=O)N2c1ccc(C(F)(F)F)cc1 [Example T-51]
IC50 [1]: ≤ 1 µM
IC50 (YAP-TEAD): ≤ 1 µM

CNS(=O)(=O)c1ccc2c(c1)-c1cn(C)nc1CC(=O)N2c1ccc(C(F)(F)F)cc1 [Example T-52]
IC50 [1]: ≤ 1 µM
IC50 (YAP-TEAD): ≤ 1 µM

CNS(=O)(=O)c1ccc2c(c1)-c1nn(C)cc1CCN2c1ccc(C(F)(F)F)cc1 [Example T-54]
IC50 [1]: ≤ 1 µM
IC50 (YAP-TEAD): ≤ 1 µM

CNS(=O)(=O)c1ccc2c(c1)-c1cn(C)nc1CCN2c1ccc(C(F)(F)F)cc1 [Example T-55]
IC50 [1]: ≤ 1 µM
IC50 (YAP-TEAD): ≤ 1 µM

CNS(=O)(=O)c1ccc2c(c1)c1ncn(C)c1c(=O)n2-c1cccc(C(F)(F)F)c1 [Example T-57]
IC50 [1]: ≤ 1 µM
IC50 (YAP-TEAD): ≤ 1 µM

CNS(=O)(=O)c1ccc2c(c1)c1nn(C)cc1c(=O)n2-c1cccc(C(F)(F)F)c1 [Example T-58]
IC50 [1]: ≤ 1 µM
IC50 (YAP-TEAD): ≤ 1 µM

CNS(=O)(=O)c1ccc2c(c1)c1ncn(C)c1c(=O)n2-c1ccccc1 [Example T-60]
IC50 [1]: ≤ 1 µM
IC50 (YAP-TEAD): ≤ 1 µM

CNS(=O)(=O)c1ccc2c(c1)c1nn(C)cc1c(=O)n2-c1ccccc1 [Example T-61]
IC50 [1]: ≤ 1 µM
IC50 (YAP-TEAD): ≤ 1 µM

CNS(=O)(=O)c1ccc2c(c1)c1nn(C)cc1c(=O)n2-c1ccc(F)cc1 [Example T-65]
IC50 [1]: ≤ 1 µM
IC50 (YAP-TEAD): ≤ 1 µM

CNS(=O)(=O)c1ccc2c(c1)c1cn(C)nc1c(=O)n2-c1ccc(F)c(F)c1 [Example T-66]
IC50 [1]: ≤ 1 µM
IC50 (YAP-TEAD): ≤ 1 µM

CNS(=O)(=O)c1ccc2c(c1)c1nn(C)cc1c(=O)n2-c1ccc(F)c(F)c1 [Example T-68]
IC50 [1]: ≤ 1 µM
IC50 (YAP-TEAD): ≤ 1 µM

CNS(=O)(=O)c1ccc2c(c1)c1nn(C)cc1c(=O)n2-c1cccc(F)c1 [Example T-72]
IC50 [1]: ≤ 1 µM
IC50 (YAP-TEAD): ≤ 1 µM

CNS(=O)(=O)c1ccc2c(c1)c1nn(C)cc1c(=O)n2-c1cccc(C)c1 [Example T-79]
IC50 [1]: 1 to 5 µM
IC50 (YAP-TEAD): ≤ 1 µM

CNS(=O)(=O)c1ccc2c(c1)c1nn(C)cc1c(=O)n2-c1ccc(C)cc1 [Example T-82]
IC50 [1]: ≤ 1 µM
IC50 (YAP-TEAD): ≤ 1 µM

CC(C)NC(=O)c1ccc2c(c1)c1nn(C)cc1c(=O)n2-c1ccc(C(F)(F)F)cc1 [Example T-86]
IC50 [1]: ≤ 1 µM
IC50 (YAP-TEAD): ≤ 1 µM

COC(=O)c1ccc2c(c1)c1ncn(C)c1c(=O)n2-c1ccc(C(F)(F)F)cc1 [Example T-99]
IC50 [1]: 1 to 5 µM
IC50 (YAP-TEAD): 1 to 5 µM

COC(=O)c1ccc2c(c1)c1nn(C)cc1c(=O)n2-c1ccc(C(F)(F)F)cc1 [Example T-100]
IC50 [1]: 1 to 5 µM
IC50 (YAP-TEAD): 1 to 5 µM

Cn1cc2c(=O)n(-c3ccc(C(F)(F)F)cc3)c3ccc(C(=O)NC(C)(C)C)cc3c2n1 [Example T-101]
IC50 [1]: ≤ 1 µM
IC50 (YAP-TEAD): ≤ 1 µM

Cn1cc2c(=O)n(-c3ccc(C(F)(F)F)cc3)c3ccc(C(=O)NC4CC4)cc3c2n1 [Example T-102]
IC50 [1]: ≤ 1 µM
IC50 (YAP-TEAD): ≤ 1 µM
